In brackets after ≈: the same amount, converted by molar mass.
How the values were obtained:
Malme-3M [1] = assay: In vitro cytotoxicity against human melanoma, metastatic to lung using MTT assay (MALME-3M); format: functional; conditions: read-out: ED50 (the source's name)
A549 [2] = assay: In vitro cytotoxicity against human lung carcinoma cell line A-549 at 7.4*10e-5 M; format: functional; conditions: read-out: ED50 (the source's name)
MCF7 [3] = assay: In vitro cytotoxicity against human breast carcinoma cell line MCF-7 at 8.1*10e-5M; format: functional; conditions: read-out: ED50 (the source's name)
SK-MEL-5 [4] = assay: In vitro cytotoxicity against human melanoma, metastatic to auxiliary node (SK-MEL-5); format: functional; conditions: read-out: ED50 (the source's name)
HT-29 [5] = assay: In vitro cytotoxicity against human colon adenocarcinoma cell line HT-29 at 1.6*10e-5M; format: functional; conditions: read-out: ED50 (the source's name)
P388 = assay: In vitro cytotoxicity against P388 cell line; 10e-7-10e-9 ug/mL; format: functional; conditions: Mus musculus, read-out: ED50 (the source's name)
HT-29 [6] = assay: In vitro cytotoxicity against human colon adenocarcinoma cell line HT-29; format: functional; conditions: read-out: ED50 (the source's name)
A549 [7] = assay: In vitro cytotoxicity against human lung carcinoma cell line A-549; format: functional; conditions: read-out: ED50 (the source's name)
MCF7 [8] = assay: In vitro cytotoxicity against human breast carcinoma cell line MCF-7; format: functional; conditions: read-out: ED50 (the source's name)
HT-29 [9] = assay: In vitro cytotoxicity against human colon adenocarcinoma cell line HT-29 at 5.9*10e-5M; format: functional; conditions: read-out: ED50 (the source's name)
SK-MEL-5 [10] = assay: In vitro cytotoxicity against human melanoma, metastatic to auxiliary node (SK-MEL-5) at 2.6*10e-5M; format: functional; conditions: read-out: ED50 (the source's name)
Malme-3M [11] = assay: In vitro cytotoxicity against human melanoma, metastatic to lung using MTT assay (MALME-3M) at 4.7*10e-5M; format: functional; conditions: read-out: ED50 (the source's name)
MCF7 [12] = assay: In vitro cytotoxicity against human breast carcinoma cell line MCF-7 at 5.6*10e-5M; format: functional; conditions: read-out: ED50 (the source's name)
A549 [13] = assay: In vitro cytotoxicity against human lung carcinoma cell line A-549 at 5.0*10e-5M; format: functional; conditions: read-out: ED50 (the source's name)
NRKE [14] = assay: In vitro cytotoxicity expressed as % cell kill against normal rat kidney epithelial cell (NRKE) at a dose of 3.3 uM; format: functional
NRK [15] = assay: In vitro cytotoxicity expressed as % cell kill against rat transformed cell line K/1-NRK at a dose of 3.3 uM; format: functional
Mus musculus [16] = assay: Percent inhibition was determined against K/1-NRK tumor at a dose of 150 mg/kg/day in mice; format: functional
NRKE [17] = assay: In vitro cytotoxicity expressed as % cell kill against normal rat kidney epithelial cell (NRKE) at a dose of 33 uM; format: functional
A549 [18] = assay: In vitro cytotoxicity against human lung carcinoma cell line A-549 at 6.1*10e-5 M; format: functional; conditions: read-out: ED50 (the source's name)
MCF7 [19] = assay: In vitro cytotoxicity against human breast carcinoma cell line MCF-7 at 4.9*10e-5M; format: functional; conditions: read-out: ED50 (the source's name)
NRK [20] = assay: In vitro cytotoxicity expressed as % cell kill against ras transformed cell line K/1-NRK at a dose of 33 uM; format: functional, Rattus norvegicus
HT-29 [21] = assay: In vitro cytotoxicity against human colon adenocarcinoma cell line HT-29 at 1.2*10e-5M; format: functional; conditions: read-out: ED50 (the source's name)
Mus musculus [22] = species on record: Mus musculus; assay: Maximum tolerated dose (MTD) was reported; format: functional
Mus musculus [23] = assay: Percent inhibition was determined against H/1/2-NRK tumor at a dose of 150 mg/kg/day in mice; format: functional
Malme-3M [24] = assay: In vitro cytotoxicity against human melanoma, metastatic to lung using MTT assay (MALME-3M) at 6.8*10e-5M; format: functional
NRK [25] = assay: In vitro cytotoxicity expressed as % cell kill against rat transformed cell line H/1/2-NRK at a dose of 33 uM; format: functional
SK-MEL-5 [26] = assay: In vitro cytotoxicity against human melanoma, metastatic to auxiliary node (SK-MEL-5) at 6.3*10e-5M; format: functional; conditions: read-out: ED50 (the source's name)
NRK [27] = assay: In vitro cytotoxicity expressed as % cell kill against rat transformed cell line H/1/2-NRK at a dose of 3.3 uM; format: functional
Mus musculus [28] = assay: Percent inhibition was determined against K/1-NRK tumor at a dose of 75 mg/kg/day in mice; format: functional
HT-29 [29] = assay: In vitro cytotoxicity against human colon adenocarcinoma cell line HT-29 at 5.7*10e-5M; format: functional; conditions: HT-29, read-out: ED50
A549 [30] = assay: In vitro cytotoxicity against human lung carcinoma cell line A-549 at 3.6*10e-5 M; format: functional; conditions: A549, read-out: ED50
MCF7 [31] = assay: In vitro cytotoxicity against human breast carcinoma cell line MCF-7 at 4.4*10e-5M; format: functional; conditions: MCF7, read-out: ED50
SK-MEL-5 [32] = assay: In vitro cytotoxicity against human melanoma, metastatic to auxiliary node (SK-MEL-5) at 5.1*10e-5M; format: functional; conditions: SK-MEL-5, read-out: ED50
Malme-3M [33] = assay: In vitro cytotoxicity against human melanoma, metastatic to lung using MTT assay (MALME-3M) at 5.5*10e-5M; format: functional; conditions: read-out: ED50 (the source's name)
SK-MEL-5 [34] = assay: In vitro cytotoxicity against human melanoma, metastatic to auxiliary node (SK-MEL-5) at 3.2*10e-5M; format: functional; conditions: read-out: ED50 (the source's name)
HT-29 [35] = assay: In vitro cytotoxicity against human colon adenocarcinoma cell line HT-29 at 3.0*10e-5 M; format: functional; conditions: read-out: ED50 (the source's name)

Compound: C[C@@]12CCC3[C@](C)(CC[C@]4(C)C(=O)CC[C@@]34C)[C@@]1(C)Cc1nc3c(nc1C2)C[C@@]1(C)[C@@](C)(CCC2[C@]1(C)CC[C@]1(C)C(=O)CC[C@@]21C)C3 (stereo partly specified)
- EC50 (Malme-3M [1]): > 100 µg/mL
- EC50 (A549 [2]): 42 µg/mL (≈ 64.3 µM)
- EC50 (MCF7 [3]): 46 µg/mL (≈ 70.4 µM)
- EC50 (SK-MEL-5 [4]): > 100 µg/mL
- EC50 (HT-29 [5]): 94 µg/mL (≈ 144 µM)

Compound: C[C@@H]1[C@]2(O[C@H]3C=C4C5CC[C@@]6(C)Cc7nc8c(nc7C[C@]6(C)[C@@]5(C)C[C@@H](O)[C@]4(C)[C@]31O)C[C@]1(C)CCC3C4=CC[C@@H]5[C@H](C)[C@@]6(OC[C@]45C(=O)C[C@@H]3[C@@]1(C)C8)OC(C)(C)C[C@H]6O)O[C@](C)(CO)C[C@H]2O (stereo partly specified) [CEPHALOSATIN]
- EC50 (P388): 0.001 ng/mL (≈ 1.05e-06 µM)

Compound: CCCCCCCC[C@H]1CC[C@@]2(C)C3CC[C@@]4(C)Cc5nc6c(nc5C[C@]4(C)[C@@]3(C)CC[C@]12C)C[C@]1(C)CCC2[C@](C)(CC[C@]3(C)[C@@H](CCCCCCCC)CC[C@@]23C)[C@@]1(C)C6 (stereo partly specified)
- EC50 (HT-29 [6]): > 100 µg/mL
- EC50 (A549 [7]): > 100 µg/mL
- EC50 (Malme-3M [1]): > 100 µg/mL
- EC50 (SK-MEL-5 [4]): > 100 µg/mL
- EC50 (MCF7 [8]): > 100 µg/mL

Compound: C[C@@]12CCC3[C@](C)(CC[C@]4(C)C5(CC[C@@]34C)OCCO5)[C@@]1(C)Cc1nc3c(nc1C2)C[C@@]1(C)[C@@](C)(CCC2[C@]1(C)CC[C@]1(C)C4(CC[C@@]21C)OCCO4)C3 (stereo partly specified)
- EC50 (HT-29 [9]): 39 µg/mL (≈ 52.6 µM)
- EC50 (SK-MEL-5 [10]): 17 µg/mL (≈ 22.9 µM)
- EC50 (Malme-3M [11]): 31 µg/mL (≈ 41.8 µM)
- EC50 (MCF7 [12]): 37 µg/mL (≈ 49.9 µM)
- EC50 (A549 [13]): 33 µg/mL (≈ 44.5 µM)

Compound: C[C@@]12CCC3[C@](C)(CC[C@]4(C)[C@@H](O)CC[C@@]34C)[C@@]1(C)Cc1nc3c(nc1C2)C[C@@]1(C)[C@@](C)(CCC2[C@]1(C)CC[C@]1(C)[C@@H](O)CC[C@@]21C)C3 (stereo partly specified)
- Cell kill (NRKE [14]): 100%
- Cell kill (NRK [15]): 100%
- inhibition in vivo at 150 mg/kg/day (Mus musculus [16]): 51%
- Cell kill (NRKE [17]): 100%
- EC50 (A549 [18]): 35 µg/mL (≈ 53.3 µM)
- EC50 (MCF7 [19]): 28 µg/mL (≈ 42.6 µM)
- Cell kill (NRK [20]): 100%
- EC50 (HT-29 [21]): 7 µg/mL (≈ 10.7 µM)
- MTD (Mus musculus [22]): 150 mg/kg/day
- inhibition in vivo at 150 mg/kg/day (Mus musculus [23]): 59%
- EC50 (Malme-3M [24]; read-out: ED50 (the source's name)): 39 µg/mL (≈ 59.4 µM)
- Cell kill (NRK [25]): 100%
- EC50 (SK-MEL-5 [26]): 36 µg/mL (≈ 54.8 µM)
- Cell kill (NRK [27]): 100%
- inhibition in vivo at 75 mg/kg/day (Mus musculus [28]): 28%

Compound: C[C@@]12CCC3[C@](C)(CC[C@]4(C)[C@@H](O)CC[C@@]34C)[C@@]1(C)Cc1nc3c(nc1C2)C(N=[N+]=[N-])[C@@]1(C)[C@@H](CCC2[C@]1(C)CC[C@]1(C)[C@@H](O)CC[C@@]21C)C3 (stereo partly specified)
- EC50 (HT-29 [29]): 35 µg/mL (≈ 51.2 µM)
- EC50 (A549 [30]): 22 µg/mL (≈ 32.2 µM)
- EC50 (MCF7 [31]): 27 µg/mL (≈ 39.5 µM)
- EC50 (SK-MEL-5 [32]): 31 µg/mL (≈ 45.3 µM)
- EC50 (Malme-3M [24]; read-out: ED50): 42 µg/mL (≈ 61.4 µM)

Compound: C[C@H]1CC[C@@]2(OC1)O[C@H]1C[C@@]3(C)C4CC[C@@]5(C)Cc6nc7c(nc6C[C@]5(C)C4=C(O)C(=O)[C@]3(C)[C@H]1[C@@H]2C)C[C@]1(C)CCC2C(=C(O)C(=O)[C@]3(C)[C@@H]4[C@H](C[C@@]23C)O[C@]2(CC[C@H](C)CO2)[C@H]4C)[C@@]1(C)C7 (stereo partly specified)
- EC50 (Malme-3M [33]): 53 µg/mL (≈ 56.8 µM)
- EC50 (A549 [7]): > 100 µg/mL
- EC50 (SK-MEL-5 [34]): 28 µg/mL (≈ 30 µM)
- EC50 (HT-29 [35]): 26 µg/mL (≈ 27.9 µM)
- EC50 (MCF7 [8]): > 100 µg/mL

From ChEMBL document CHEMBL1126465, “Synthesis and pharmacological evaluation of nonacyclic and trisdecacyclic pyrazines related to cephalostatin” (1992)
